For this experiment, the system named is TNF-α and IL-1 secretion. Put plainly: investigated assays, not specified which (TNF-α/IL-1 secretion in human PBMC, in mouse peritoneal macrophages, LPS-induced secretion in mice, writhing assay, LPS-induced shock). As to conditions: at least two of five assays, not named; active = IC50 20 μM or lower (PBMC), 10 μM or lower (macrophages), 30% or more TNF-α inhibition at 10 mg/kg, analgetic activity as acetylsalicylic acid or better, survival 40% or more at 30 mg/kg. How it is done:
The inhibitory action of the present compounds upon TNF-α and IL-1 secretion was determined by the following in vitro and in vivo experiments:
Human peripheral blood mononuclear cells (PBMC) were prepared from heparinized whole blood after separating PBMC on Ficoll-Paque™Plus (Amersham-Pharmacia). To determine the TNF-α level, 3.5-5×10^4 cells were cultivated in a total volume of 200 μl for 18 to 24 hours on microtitre plates with a flat bottom (96 wells, Falcon) in RPMI 1640 medium, into which there were added 10% FBS (Fetal Bovine Serum, Biowhittaker) previously inactivated at 54° C./30 min, 100 units/ml of penicillin, […] of streptomycin and 20 mM HEPES (GIBCO). The cells were incubated at 37° C. in an atmosphere with 5% CO2 and 90% humidity. […] The IL-1 level was determined in an assay under the same conditions and with the same number of cells and the same concentration of stimuli stimulus by ELISA procedure (R&D Systems). The percentage of inhibition of TNF-α or IL-1 production was calculated by the equation: • % inhibition=[1−(TS-NC)/(PC-NC)]*100. […]
In order to obtain peritoneal macrophages, Balb/C mouse strain males, age 8 to 12 weeks, were injected i.p. with 300 μg of zymosan (SIGMA) dissolved in a phosphate buffer (PBS) in a total volume of 0.1 ml/mouse. […] The TNF-α level in the cell supernatant was determined by ELISA procedure (R&D Systems, Biosource). […]

In the case of `O=Cc1scc2c1-c1ccccc1Sc1ccccc1-2` [Example 14, 2,8-Dithia-dibenzo[e,h]azulene-1-carbaldehyde], the “activity in the investigated assays” value is listed as “activity in at least two investigated assays”.
